Read-outs that look alike come from different tables or passages of the source.
What was measured:
[1] = Cell viability assay (AlamarBlue) in HepAD38 cells; conditions: human
HBV core protein = molecular target: T1, HBV core protein (UniProt P03146); test: Biochemical capsid assembly assay (fluorescence quenching); design: species or system hepatitis B virus; conditions: read-out: Assembly Activity (IC50); BODIPY-FL labelled core protein, 300 μM NaCl, read 6 min after start
T1 construct: fused on or other part: BODIPY-FL maleimide label on the C-terminal Cys150
In short: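 Purified E. coli-expressed HBV core protein (aa 1-149 plus Cys150), BODIPY-FL maleimide-labelled, at 1.0-2.0 μM in 50 mM HEPES pH 7.5 with 0.5% DMSO was used. Compounds were tested at 8 concentrations (0.5-log dilutions from 100, 31.6 or 10 μM). Assembly was started with NaCl ([…]), and fluorescence quenching was read after 6 min (ex 477/em 525 nm). EC50 was determined by non-linear regression.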

HBV = test: Determination of HBV DNA from the supernatants of HepAD38 cells (anti-HBV activity); type: cell-based, hepatitis B virus; conditions: Hepatitis B virus, read-out: Cell Activity (EC50)
In short: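 HepAD38 cells, tetracycline withdrawn to induce HBV, treated with serial half-log compound dilutions; on day 6 HBV DNA purified from filtered supernatant and quantified by real-time PCR against HBV plasmid standards; EC50 from relative copy numbers by non-linear regression, three experiments in triplicate.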

[2] = 144 h, HBV DNA in HepAD38 supernatant, day 6, qPCR

T1 sequence (P03146 whole entry, looked up, the tested form may be a part): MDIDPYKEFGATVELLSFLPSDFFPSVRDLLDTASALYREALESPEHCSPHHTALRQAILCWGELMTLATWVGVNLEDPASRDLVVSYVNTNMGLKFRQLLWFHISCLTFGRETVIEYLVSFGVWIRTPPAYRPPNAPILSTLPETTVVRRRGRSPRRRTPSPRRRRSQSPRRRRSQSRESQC

| SMILES | CC50 at 6 days [1] [µM] | IC50 (HBV core protein) [µM] | EC50 (HBV; [2]) [µM] | EC50 (HBV; HePAD38, 144 h) [µM] |
| --- | --- | --- | --- | --- |
| CN(CCN)C(=O)c1[nH]nc2c1CN(C(=O)c1cc3ccccc3[nH]1)CC2 [Example 280, N-(2-aminoethyl)-5-(1H-indole-2-carbonyl)-N-methyl-2H,4H,5H,6H,7H-pyrazolo[4,3-c]pyridine-3-carboxamide] | > 10 | < 100 | < 1 |  |
| CN(C(=O)c1[nH]nc2c1CN(C(=O)c1cc3c(F)cc(F)cc3[nH]1)CC2)C1CC1 [Example 323, N-cyclopropyl-5-(4,6-difluoro-1H-indole-2-carbonyl)-N-methyl-2H,4H,5H,6H,7H-pyrazolo[4,3-c]pyridine-3-carboxamide] | > 10 | < 5 | < 1 |  |
| CN(C(=O)c1n[nH]c2c1CN(C(=O)c1cc3ccccc3[nH]1)CC2)[C@H]1CC[C@H](O)CC1 [Example 173, 5-(1H-indole-2-carbonyl)-N-methyl-N-[(1r,4r)-4-hydroxycyclohexyl]-1H,4H,5H,6H,7H-pyrazolo[4,3-c]pyridine-3-carboxamide] | > 10 | < 100 | 1 to 25 |  |
| CN(C(=O)c1n[nH]c2c1CN(C(=O)c1cc3ccccc3[nH]1)CC2)C1COC1 [Example 188, 5-(1H-indole-2-carbonyl)-N-methyl-N-(oxetan-3-yl)-1H,4H,5H,6H,7H-pyrazolo[4,3-c]pyridine-3-carboxamide] | > 10 | 5 to 10 | < 1 |  |
| CN(CCO)C(=O)c1n[nH]c2c1CN(C(=O)c1cc3cc(F)c(F)cc3[nH]1)CC2 [Example 7, 5-(5,6-difluoro-1H-indole-2-carbonyl)-N-(2-hydroxyethyl)-N-methyl-1H,4H,5H,6H,7H-pyrazolo[4,3-c]pyridine-3-carboxamide] | > 10 | < 5 | < 1 |  |
| COCC1(NC(=O)c2n[nH]c3c2CN(C(=O)c2cc4ccccc4[nH]2)CC3)CC1 [Example 202, 5-(1H-indole-2-carbonyl)-N-[1-(methoxymethyl)cyclopropyl]-1H,4H,5H,6H,7H-pyrazolo[4,3-c]pyridine-3-carboxamide] | > 10 | < 5 | < 1 |  |
| CN(CCO)C(=O)c1n[nH]c2c1CN(C(=O)c1cc3c(C(F)F)cccc3[nH]1)CC2 [Example 4, 5-[4-(difluoromethyl)-1H-indole-2-carbonyl]-N-(2-hydroxyethyl)-N-methyl-1H,4H,5H,6H,7H-pyrazolo[4,3-c]pyridine-3-carboxamide] | > 10 | < 5 | < 1 |  |
| CC1c2c(-c3cscn3)n[nH]c2CCN1C(=O)c1cc2ccccc2[nH]1 (stereo not drawn) [Example 36, 2-[4-methyl-3-(1,3-thiazol-4-yl)-1H,4H,5H,6H,7H-pyrazolo[4,3-c]pyridine-5-carbonyl]-1H-indole] | 88 | 5 to 10 | < 1 |  |
| CN(CCC#N)C(=O)c1n[nH]c2c1CN(C(=O)c1cc3ccccc3[nH]1)CC2 [Example 292, N-(2-cyanoethyl)-5-(1H-indole-2-carbonyl)-N-methyl-1H,4H,5H,6H,7H-pyrazolo[4,3-c]pyridine-3-carboxamide] | > 10 | < 5 | 1 to 25 |  |
| O=C(c1cc2ccccc2[nH]1)N1CCc2[nH]nc(NCC3CCOCC3)c2C1 [Example 81, 5-(1H-indole-2-carbonyl)-N-[(oxan-4-yl)methyl]-1H,4H,5H,6H,7H-pyrazolo[4,3-c]pyridin-3-amine] | > 100 | < 100 | 1 to 25 |  |
| COCC1(N(C)C(=O)c2n[nH]c3c2CN(C(=O)c2cc4c(F)c(F)cc(F)c4[nH]2)CC3)CC1 [Example 307, N-[1-(methoxymethyl)cyclopropyl]-N-methyl-5-(4,5,7-trifluoro-1H-indole-2-carbonyl)-1H,4H,5H,6H,7H-pyrazolo[4,3-c]pyridine-3-carboxamide] | > 10 | < 5 | < 1 |  |
| CN(C(=O)c1[nH]nc2c1CN(C(=O)c1cc3ccc(Cl)cc3[nH]1)CC2)C1CC1 [Example 325, 5-(6-chloro-1H-indole-2-carbonyl)-N-cyclopropyl-N-methyl-2H,4H,5H,6H,7H-pyrazolo[4,3-c]pyridine-3-carboxamide] | > 10 | < 5 | < 1 |  |
| CON=C(C)c1n[nH]c2c1CN(C(=O)c1cc3ccccc3[nH]1)CC2 [Example 274, {1-[5-(1H-indole-2-carbonyl)-1H,4H,5H,6H,7H-pyrazolo[4,3-c]pyridin-3-yl]ethylidene}(methoxy)amine] | > 10 | < 100 | 1 to 25 |  |
| CC(C)OC(=O)[C@H](C)NP(=O)(OCCCN(C)C(=O)c1n[nH]c2c1CN(C(=O)c1cc3c(Cl)cccc3[nH]1)CC2)Oc1ccccc1 (stereo partly drawn) [Example 66, propan-2-yl (2S)-2-{[(3-{1-[5-(4-chloro-1H-indole-2-carbonyl)-1H,4H,5H,6H,7H-pyrazolo[4,3-c]pyridin-3-yl]-N-methylformamido}propoxy)(phenoxy)phosphoryl]amino}propanoate] | > 32 | < 5 |  | < 1 |
| CN(C(=O)c1[nH]nc2c1CN(C(=O)c1cc3ccccc3[nH]1)CC2)C1(CO)COC1 [Example 249, N-[3-(hydroxymethyl)oxetan-3-yl]-5-(1H-indole-2-carbonyl)-N-methyl-2H,4H,5H,6H,7H-pyrazolo[4,3-c]pyridine-3-carboxamide] | > 10 | < 5 | < 1 |  |
| CCc1cc(F)cc2[nH]c(C(=O)N3CCc4[nH]nc(C56CC(C5)C6)c4C3)cc12 [Example 334, 2-(3-{bicyclo[1.1.1]pentan-1-yl}-1H,4H,5H,6H,7H-pyrazolo[4,3-c]pyridine-5-carbonyl)-4-ethyl-6-fluoro-1H-indole] | > 10 | < 5 | < 1 |  |
| O=C(c1cc2ccccc2[nH]1)N1CCc2[nH]nc(C(=O)N3CCCN3)c2C1 [Example 124, 2-[3-(pyrazolidine-1-carbonyl)-1H,4H,5H,6H,7H-pyrazolo[4,3-c]pyridine-5-carbonyl]-1H-indole] | > 32 | < 5 | < 1 |  |
| CN(CCO)C(=O)c1n[nH]c2c1CN(C(=O)c1cc3ccccc3[nH]1)CC2 [Example 100, N-(2-hydroxyethyl)-5-(1H-indole-2-carbonyl)-N-methyl-1H,4H,5H,6H,7H-pyrazolo[4,3-c]pyridine-3-carboxamide] | > 100 | < 5 | < 1 |  |
| O=C(c1cc2ccc(Cl)cc2[nH]1)N1CCc2n[nH]c(-c3cscn3)c2C1 [Example 16, 6-chloro-2-[3-(1,3-thiazol-4-yl)-2H,4H,5H,6H,7H-pyrazolo[4,3-c]pyridine-5-carbonyl]-1H-indole] | > 10 | < 5 | < 1 |  |
| CN(C(=O)c1n[nH]c2c1CN(C(=O)c1cc3ccccc3[nH]1)CC2)C1(CO)CC1 [Example 33, N-[1-(hydroxymethyl)cyclopropyl]-5-(1H-indole-2-carbonyl)-N-methyl-1H,4H,5H,6H,7H-pyrazolo[4,3-c]pyridine-3-carboxamide] | > 10 | < 5 | < 1 |  |
| CCOCC1(N(C)C(=O)c2[nH]nc3c2CN(C(=O)c2cc4c(F)cc(F)cc4[nH]2)CC3)CC1 [Example 363, 5-(4,6-difluoro-1H-indole-2-carbonyl)-N-[1-(ethoxymethyl)cyclopropyl]-N-methyl-2H,4H,5H,6H,7H-pyrazolo[4,3-c]pyridine-3-carboxamide] | > 10 | < 5 | < 1 |  |
| C=Cc1scnc1-c1n[nH]c2c1CN(C(=O)c1cc3ccccc3[nH]1)CC2 [Example 317, 2-[3-(5-ethenyl-1,3-thiazol-4-yl)-1H,4H,5H,6H,7H-pyrazolo[4,3-c]pyridine-5-carbonyl]-1H-indole] | > 10 | < 5 | < 1 |  |
| C[C@H]1CCCCN1C(=O)c1n[nH]c2c1CN(C(=O)c1cc3ccccc3[nH]1)CC2 [Example 147, 2-{3-[(2S)-2-methylpiperidine-1-carbonyl]-1H,4H,5H,6H,7H-pyrazolo[4,3-c]pyridine-5-carbonyl}-1H-indole] | > 10 | 5 to 10 | < 1 |  |
| CC(C)OC(=O)[C@H](C)NP(=O)(OCCCN(C)C(=O)c1n[nH]c2c1CN(C(=O)c1cc3ccccc3[nH]1)CC2)Oc1ccccc1 (stereo partly drawn) [Example 70, propan-2-yl (2S)-2-{[(3-{1-[5-(1H-indole-2-carbonyl)-1H,4H,5H,6H,7H-pyrazolo[4,3-c]pyridin-3-yl]-N-methylformamido}propoxy)(phenoxy)phosphoryl]amino}propanoate] | > 32 | < 5 |  | 1 to 25 |
| COCC1(N(C)C(=O)c2n[nH]c3c2CN(C(=O)c2cc4ccc(Cl)cc4[nH]2)CC3)CC1 [Example 263, 5-(6-chloro-1H-indole-2-carbonyl)-N-[1-(methoxymethyl)cyclopropyl]-N-methyl-1H,4H,5H,6H,7H-pyrazolo[4,3-c]pyridine-3-carboxamide] | > 10 | < 5 | < 1 |  |
